Reference: patent US11312727B1, “Macrocyclic flu endonuclease inhibitors” (Janssen BioPharma, Inc., priority 2018, dated 2022)

What was measured:
[1] = tested on: Influenza strain A549 A/WSN/33 (H1N1); experiment: microbe, parasite or virus in culture; type: cell-based; conditions: Influenza A virus, A549, 20 h, A549 cells, influenza A/WSN/33 (H1N1), 20 hours incubation; read-out: A549_A(H1N1) EC50
in vitro = conditions: human, CC50, uninfected A549 cells, CellTiter-Glo

Compound	EC50 [1] [nM]	CC50 (in vitro) [nM]
O=C1c2c(O)c(=O)ccn2N2CN1CC/C=C/COc1cccc3c1[C@@H]2c1cccc(F)c1SC3 (single isomer, unassigned) [Compound 137A, (1*R,13*E)-25-fluoro-7-hydroxy-16-oxa-23-thia-2,3,10-triazahexacyclo[15.12.1.12,10.03,8.021,30.024,29]hentriaconta-4,7,13,17,19,21(30),24(29),25,27-nonaene-6,9-dione]	> 100	> 200
O=C1c2c(O)c(=O)ccn2N2CN1CC/C=C/COc1cccc3c1[C@H]2c1cccc(F)c1SC3 (single isomer, unassigned) [Compound 137B, (1*S,13*E)-25-fluoro-7-hydroxy-16-oxa-23-thia-2,3,10-triazahexacyclo[15.12.1.12,10.03,8.021,30.024,29]hentriaconta-4,7,13,17,19,21(30),24(29),25,27-nonaene-6,9-dione]	5.3	> 200
C[C@H]1/C=C\COc2cccc3c2[C@@H](c2ccccc2SC3)N2CN1C(=O)c1c(O)c(=O)ccn12 (single isomer, unassigned) [Compound 138AA, (13*S,21a*S,Z)-16-hydroxy-13-methyl-6,10,13,21a-tetrahydro-7,8-(epiprop[1]en[1]yl[3]ylidene)-14,21-methanobenzo[6,7]thiepino[4,5-c]pyrido[1,2-f][1]oxa[5,6,9]triazacyclotridecine-15,17-dione]	0.8	> 50
C[C@@H]1/C=C\COc2cccc3c2[C@@H](c2ccccc2SC3)N2CN1C(=O)c1c(O)c(=O)ccn12 (single isomer, unassigned) [Compound 138AB, (13*R,21a*S,Z)-16-hydroxy-13-methyl-6,10,13,21a-tetrahydro-7,8-(epiprop[1]en[1]yl[3]ylidene)-14,21-methanobenzo[6,7]thiepino[4,5-c]pyrido[1,2-f][1]oxa[5,6,9]triazacyclotridecine-15,17-dione]	1.5	> 50
C[C@@H]1/C=C\COc2cccc3c2[C@H](c2ccccc2SC3)N2CN1C(=O)c1c(O)c(=O)ccn12 (single isomer, unassigned) [Compound 138BB, (13*R,21a*R,Z)-16-hydroxy-13-methyl-6,10,13,21a-tetrahydro-7,8-(epiprop[1]en[1]yl[3]ylidene)-14,21-methanobenzo[6,7]thiepino[4,5-c]pyrido[1,2-f][1]oxa[5,6,9]triazacyclotridecine-15,17-dione]	> 100	> 200
C[C@@H]1/C=C/COc2cccc3c2[C@H](c2ccccc2SC3)N2CN1C(=O)c1c(O)c(=O)ccn12 (single isomer, unassigned) [Compound 138C, (9*R,17a*R,E)-12-hydroxy-9-methyl-2,6,9,17a-tetrahydro-3,4-(epiprop[1]en[1]yl[3]ylidene)-10,17-methanobenzo[6,7]thiepino[4,5-c]pyrido[1,2-f][1]oxa[5,6,9]triazacyclotridecine-11,13-dione]	> 100	> 200
C[C@H]1/C=C/COc2cccc3c2[C@@H](c2ccccc2SC3)N2CN1C(=O)c1c(O)c(=O)ccn12 (single isomer, unassigned) [Compound 138D, (9*S,17a*S,E)-12-hydroxy-9-methyl-2,6,9,17a-tetrahydro-3,4-(epiprop[1]en[1]yl[3]ylidene)-10,17-methanobenzo[6,7]thiepino[4,5-c]pyrido[1,2-f][1]oxa[5,6,9]triazacyclotridecine-11,13-dione]	0.9	> 200
O=C1c2c(O)c(=O)ccn2N2CN1C[C@H]1C[C@@H]1COc1c(ccc(F)c1F)[C@@H]2c1ccccc1 (single isomer, unassigned) [Compound 139AA, (1a*S,8*S,17a*S)-4,5-difluoro-14-hydroxy-8-phenyl-1a,2,17,17a-tetrahydro-1H,8H-9,16-methanobenzo[b]cyclopropa[k]pyrido[1,2-f][1]oxa[5,6,9]triazacyclotridecine-13,15-dione]	8320	26900
O=C1c2c(O)c(=O)ccn2N2CN1C[C@@H]1C[C@H]1COc1c(ccc(F)c1F)[C@@H]2c1ccccc1 (single isomer, unassigned) [Compound 139AB, (1a*R,8*S,17a*R)-4,5-difluoro-14-hydroxy-8-phenyl-1a,2,17,17a-tetrahydro-1H,8H-9,16-methanobenzo[b]cyclopropa[k]pyrido[1,2-f][1]oxa[5,6,9]triazacyclotridecine-13,15-dione]	4890	35900
O=C1c2c(O)c(=O)ccn2N2CN1C[C@H]1C[C@@H]1COc1c(ccc(F)c1F)[C@H]2c1ccccc1 (single isomer, unassigned) [Compound 139BA, (1a*S,8*R,17a*S)-4,5-difluoro-14-hydroxy-8-phenyl-1a,2,17,17a-tetrahydro-1H,8H-9,16-methanobenzo[b]cyclopropa[k]pyrido[1,2-f][1]oxa[5,6,9]triazacyclotridecine-13,15-dione]	44.6	> 100
O=C1c2c(O)c(=O)ccn2N2CN1C[C@@H]1C[C@H]1COc1c(ccc(F)c1F)[C@H]2c1ccccc1 (single isomer, unassigned) [Compound 139BB, (1a*R,8*R,17a*R)-4,5-difluoro-14-hydroxy-8-phenyl-1a,2,17,17a-tetrahydro-1H,8H-9,16-methanobenzo[b]cyclopropa[k]pyrido[1,2-f][1]oxa[5,6,9]triazacyclotridecine-13,15-dione]	> 25	> 50
O=C1c2c(O)c(=O)ccn2N2CN1C/C=C/COc1cc(F)c(F)c3c1[C@@H]2c1ccccc1SC3 (single isomer, unassigned) [Compound 140A, (17a*R,*E)-24,25-difluoro-12-hydroxy-2,6,9,17a-tetrahydro-3,4-(epiprop[1]en[1]yl[3]ylidene)-10,17-methanobenzo[6,7]thiepino[4,5-c]pyrido[1,2-f][1]oxa[5,6,9]triazacyclotridecine-11,13-dione]	96.3	9960
O=C1c2c(O)c(=O)ccn2N2CN1C/C=C/COc1cc(F)c(F)c3c1[C@H]2c1ccccc1SC3 (single isomer, unassigned) [Compound 140B, (17a*S,*E)-24,25-difluoro-12-hydroxy-2,6,9,17a-tetrahydro-3,4-(epiprop[1]en[1]yl[3]ylidene)-10,17-methanobenzo[6,7]thiepino[4,5-c]pyrido[1,2-f][1]oxa[5,6,9]triazacyclotridecine-11,13-dione]	0.3	> 50
O=C1c2c(O)c(=O)ccn2N2CN1C/C=C\COc1cc(F)c(F)c3c1[C@@H]2c1ccccc1SC3 (single isomer, unassigned) [Compound 140C, (21a*R,*Z)-24,25-difluoro-16-hydroxy-6,10,13,21a-tetrahydro-7,8-(epiprop[1]en[1]yl[3]ylidene)-14,21-methanobenzo[6,7]thiepino[4,5-c]pyrido[1,2-f][1]oxa[5,6,9]triazacyclotridecine-15,17-dione]	37.4	> 10000
O=C1c2c(O)c(=O)ccn2N2CN1C/C=C\COc1cc(F)c(F)c3c1[C@H]2c1ccccc1SC3 (single isomer, unassigned) [Compound 140D, (21a*S,*Z)-24,25-difluoro-16-hydroxy-6,10,13,21a-tetrahydro-7,8-(epiprop[1]en[1]yl[3]ylidene)-14,21-methanobenzo[6,7]thiepino[4,5-c]pyrido[1,2-f][1]oxa[5,6,9]triazacyclotridecine-15,17-dione]	1.2	> 50
C[C@@H]1/C=C/COc2c(F)cccc2[C@@H](c2ccccc2)N2CN1C(=O)c1c(O)c(=O)ccn12 (single isomer, unassigned) [Compound 141AA, (9*R,18*R,E)-4-fluoro-12-hydroxy-9-methyl-18-phenyl-6,9-dihydro-18H-10,17-methanobenzo[b]pyrido[1,2-f][1]oxa[5,6,9]triazacyclotridecine-11,13-dione]	1.5	> 50
C[C@H]1/C=C/COc2c(F)cccc2[C@@H](c2ccccc2)N2CN1C(=O)c1c(O)c(=O)ccn12 (single isomer, unassigned) [Compound 141AB, (9*S,18*R,E)-4-fluoro-12-hydroxy-9-methyl-18-phenyl-6,9-dihydro-18H-10,17-methanobenzo[b]pyrido[1,2-f][1]oxa[5,6,9]triazacyclotridecine-11,13-dione]	2	> 50
C[C@@H]1/C=C/COc2c(F)cccc2[C@H](c2ccccc2)N2CN1C(=O)c1c(O)c(=O)ccn12 (single isomer, unassigned) [Compound 141BA, (9*R,18*S,E)-4-fluoro-12-hydroxy-9-methyl-18-phenyl-6,9-dihydro-18H-10,17-methanobenzo[b]pyrido[1,2-f][1]oxa[5,6,9]triazacyclotridecine-11,13-dione]	306	> 20000
C[C@H]1/C=C/COc2c(F)cccc2[C@H](c2ccccc2)N2CN1C(=O)c1c(O)c(=O)ccn12 (single isomer, unassigned) [Compound 141BB, (9*S,18*S,E)-4-fluoro-12-hydroxy-9-methyl-18-phenyl-6,9-dihydro-18H-10,17-methanobenzo[b]pyrido[1,2-f][1]oxa[5,6,9]triazacyclotridecine-11,13-dione]	627	> 20000
O=C1c2c(O)c(=O)ccn2N2CN1CC[C@@H]1C[C@@H]1COc1cccc3c1[C@@H]2c1ccccc1SC3 (single isomer, unassigned) [Compound 144AA, (1*R,13*S,15*S)-7-hydroxy-17-oxa-24-thia-2,3,10-triazaheptacyclo[16.12.1.12,10.03,8.013,15.022,31.025,30]dotriaconta-4,18,20,22(31),25(30),26,28-heptaene-6,9-dione]	> 100	> 200
O=C1c2c(O)c(=O)ccn2N2CN1CC[C@H]1C[C@H]1COc1cccc3c1[C@@H]2c1ccccc1SC3 (single isomer, unassigned) [Compound 144AB, (1*R,13*R,15*R)-7-hydroxy-17-oxa-24-thia-2,3,10-triazaheptacyclo[16.12.1.12,10.03,8.013,15.022,31.025,30]dotriaconta-4,18,20,22(31),25(30),26,28-heptaene-6,9-dione]	> 100	> 200
